Assay results taken from patent US9808477B2 (Macau University of Science and Technology, priority 2015, dated 2017).

Experiments:
in vitro [1] = format: cell-based; details: human
Procedure: (§1) Sulphorhodamine B (SRB) assays were used for cell density determination, based on sensitive measure of total cellular protein, which perform similarly compared with other proliferation assays such as MTT assay. Briefly, cells were seeded into flat bottomed 96-well plates at an initial density of 7.5×10^3 per well before treatment. […] After removing the medium, cells were fixed in 10% trichloroacetic acid for 1 h at 4° C. and then washed with water five times. 0.4% SRB dissolved in 1% v/v acetic acid was added and incubated […] for staining. The cells were quickly washed with 1% acetic acid and left to dry overnight. The protein bound SRB was solubilized by adding 200 μl 10 mM Tris buffer per well and was measured at wavelengths 490 nm using a plate reader (Spectra MAX 250; Molecular Devices, Sunnyvale, Calif.). The optical density of SRB in each well is directly proportional to the cell number.

A2780/T cells [2] = test: Intracellular accumulation of doxorubicin and Flutax-2; format: cell-based, human; details: 8 h, 4.5 μM nobiletin or 20 μM QND
[3] = system: ABCB1 transfected cell line LLC-GA5-COL300; details: nobiletin 20 μM; cited from earlier work
A2780 cells = test: Intracellular accumulation of doxorubicin and Flutax-2; format: cell-based, human; details: parental A2780, nobiletin 4.5 μM
Procedure: A2780 or A2780/T cells (5×10^6) were cultured on the cover glass (ISO LAB 20×20 mm). […] After treatment, cells were fixed in 4 wt % formaldehyde (Sigma-Aldrich). Nuclear DNA was stained with 1 μg/mL blue-fluorescent DAPI (1 mg/mL in H2O stock solution; Invitrogen D1306). One drop of fluorescent preservation solution (fluorsave reagent, CALBIOCHEM) was added before observation. Imaging was carried out for comparing the intracellular accumulation of DOX and flutax-2 with a Fluorescence Microscopy (Leica DM2500, Leica, Germany).
Cells were detached, re-suspended in 500 μl of PBS after washed twice with cold PBS, and analyzed by flow cytometry (BD FACS Aria, BD Biosciences, San Jose, Calif.). Excitation and emission wavelengths (nm) used for DOX and flutax-2 were as follows: 480 to 585; and 496 to 524.

A2780/T cells [4] = test: Combination index, Chou-Talalay method (CalcuSyn); format: cell-based, human
in vitro [5] = format: cell-based; details: human; remark: listed apart in the source
Procedure: as §1

A2780/T cells [6] = test: Cell cycle analysis (PI, flow cytometry); format: cell-based, human
Procedure: A2780/T cells were harvested 24 hours, 48 hours, or 72 hours after treatment and washed twice with ice-cold PBS. The cells were fixed and permeabilized with 70% ice-cold ethanol overnight at 4° C. or 2 h at −20° C. After one additional wash in PBS, cells were stained with a staining solution containing propidium iodide (PI) ([…]) and RNase A (250 μg/ml) for 30 min at room temperature. They were then pelleted, washed and suspended in PBS to a final concentration of 1×10^6/ml and analyzed by flow cytometry BD FACS Aria (BD Biosciences, San Jose, Calif.).

[7] = system: P-gp, p53, AKT/ERK, Nrf2 in A2780/T cells; test: Western blot analysis; format: cell-based, human
Procedure: The total cellular samples were harvested and rinsed twice with ice-cold PBS buffer. Cell extracts were lysed in RIPA buffer (50 mM Tris (pH 7.4), 150 mM NaCl, 1% Triton X-100, 1% sodium deoxycholate, 0.1% SDS, sodium orthovanadate, sodium fluoride and EDTA) containing protease inhibitor cocktails (Roche Life Science, USA). Protein concentration was determined using the BCA protein assay kit. Equal amounts of cell lysates were resolved by SDS-PAGE and subsequently electrophoretically transferred onto PVDF membranes (Millipore, Darmstadt, Germany). After blocking in tris-buffered saline containing 0.1% of Tween20 (TBST) with 5% (w/v) skim milk (Nestle Carnation, New Zealand) for 2 h at room temperature, the membranes were incubated with primary and secondary antibodies and subsequently visualized with an enhanced chemiluminescence detection kit (Thermo Scientific™ SuperSignal™ West Pico Chemiluminescent Substrate, USA). β-Actin was used as the loading control for the experimental data analysis.

[8] = system: prostate cancer cell lines; details: several prostate cancer cell lines; read-out: IC50, growth inhibition; cited from earlier work
[9] = healthy subjects, single dose of Sytrinol (1053 mg total polymethoxylated flavones); cited from earlier work
A2780/T cells [10] = test: Apoptosis analysis by Annexin-V/PI double staining; format: cell-based, human
Procedure: After treatment, 1×10^6 cells were collected, washed and suspended in 100 μl of binding buffer (10 mM N-2-hydroxyethylpiperazine-N,-2-ethanesulfonic acid/NaOH, 140 mM NaCl, 2.5 mM CaCl2, pH 7.4). Apoptotic cells were identified by double supravital staining with 5 μl recombinant FITC (fluorescein isothiocyanate)-conjugated Annexin-V and 5 μl PI (50 μg/ml). The cells were stained for […] at room temperature in the dark, and analyzed by fluorescence-activated cell sorting cater-plus flow cytometry. Data acquisition and analysis were performed in BD FACS Aria with FlowJo software.

[11] = system: MDR1 mRNA in A2780/T cells; test: RT-PCR analysis of MDR1 mRNA; format: cell-based, human; details: nobiletin at concentrations used in reversal assays, 48 h
Procedure: RT-PCR was performed to evaluate MDR1 mRNA expression. mRNA from cell lysates were purified by binding to poly(dT) magnetic beads (Life technologies) and reverse transcribed by using SuperScript II (Life technologies). Standard quantitative RT-PCR was performed in duplicates at least two to three times by using SYBR Green (Molecular Probes) protocols on the ViiA™ 7 Real-Time PCR System (Life technologies). The primer sequences: 5′-[…]-3′ (SEQ ID NO:1) and 3′-[…]-5′ (SEQ ID NO:2) for MDR1, and 5′-[…]-3′ (SEQ ID NO:3) and 3′-[…]-[…]-5′ (SEQ ID NO:4) for control gene eukaryotic translation initiation factor (TIF). RT-PCR data were normalized by measuring average cycle threshold (Ct) ratios between candidate genes and control gene TIF.

Caco-2 cells = details: nobiletin 20 μM; cited from earlier work
[12] = nobiletin 9 μM in combination with 0.94 μM PTX

COc1ccc(-c2cc(=O)c3c(OC)c(OC)c(OC)c(OC)c3o2)cc1OC [nobiletin]
viability at 9 µM (in vitro [1]): > 90% | intracellular accumulation of DOX (A2780/T cells [2]; 5 μM DOX): higher than that in untreated A2780/T | intracellular accumulation of Flutax-2 (A2780/T cells [2]; Flutax-2 1 μM): higher than that in untreated A2780/T | increase of uptake of [3H] vinblastine [3]: 1.8 fold | DOX and Flutax-2 levels (A2780 cells): no effect | EC50 (A2780/T cells [4]; Homo sapiens, A2780, read-out: Dose N at Fa = 0.5 (ED50), CalcuSyn simulation, A2780/T, nobiletin dose, alone or in the combination): 36 µM | decrease of the ED50 dose of PTX (A2780/T cells [4]; combination with 0.286 μM nobiletin, A2780/T): 200 fold | viability at 9 µM (in vitro [5]): > 90% | effect on the cell cycle (A2780/T cells [6]; nobiletin 9 μM alone): no effect | G1 phase cells (A2780/T cells [6]; [12]): 9.6% | G2 phase cells (A2780/T cells [6]; [12]): 75.77% | phosphorylated AKT/ERK level ([7]; 50 μM nobiletin): significant decrease | phosphorylated AKT and ERK ([7]; PTX and nobiletin, 48 h): significant inhibitory effect | p53 level ([7]; PTX in combination with nobiletin): accumulation of p53 | expression of total and phosphorylated AKT and ERK ([7]; nobiletin alone at reversal concentrations): no effect | protein level of ABCB1 ([7]; nobiletin at concentrations used in reversal assays, 48 h): did not significantly alter | protein level of Nrf2 ([7]; nobiletin in combination with 0.94 μM PTX, dose-dependent): reduced | IC50 [8]: ~100 µM | peak plasma level [9]: ~2.5 µM | apoptosis induction, single treatment (A2780/T cells [10]; 9 μM nobiletin alone or 0.94 μM PTX alone): did not show apoptosis induction | apoptosis induced by 0.94 μM PTX (annexin V-FITC positive) (A2780/T cells [10]; 0.5, 1.5, 4.5 and 9 μM nobiletin + 0.94 μM PTX, 48 h): significantly increase apoptosis | expression of MDR1 mRNA [11]: did not significantly alter | increase of uptake of [3H] vinblastine (Caco-2 cells): 3 fold
